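Step 1: Grow cells in 96-well plates. Step 2: Expose to compound for 48 hours at 5 concentrations. Step 3: Interpolate endpoints linearly; if unreached, use highest concentration. TGI is the concentration that stops growth completely.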
Tests used:
Experiment in all cases: DTP human tumour cell line panel, 48 h
786-0 renal = test system: 786-0 renal
A498 renal = test system: A498 renal
A549 NSCLC = test system: A549 NSCLC
ACHN renal = test system: ACHN renal
BT-549 breast = test system: BT-549 breast
CAKI-1 renal = test system: CAKI-1 renal
CCRF-CEM leukemia = test system: CCRF-CEM leukemia
COLO 205 colon = test system: COLO 205 colon
DU-145 prostate = test system: DU-145 prostate
EKVX NSCLC = test system: EKVX NSCLC
HCC-2998 colon = test system: HCC-2998 colon
HCT-116 colon = test system: HCT-116 colon
HCT-15 colon = test system: HCT-15 colon
HL-60(TB) leukemia = test system: HL-60(TB) leukemia
HOP-62 NSCLC = test system: HOP-62 NSCLC
HOP-92 NSCLC = test system: HOP-92 NSCLC
HS 578T breast = test system: HS 578T breast
HT29 colon = test system: HT29 colon
K-562 leukemia = test system: K-562 leukemia
KM12 colon = test system: KM12 colon
LOX IMVI melanoma = test system: LOX IMVI melanoma
M14 melanoma = test system: M14 melanoma
MALME-3M melanoma = test system: MALME-3M melanoma
MCF7 breast = test system: MCF7 breast
MDA-MB-231 breast = test system: MDA-MB-231 breast
MDA-MB-435 = test system: MDA-MB-435
MDA-N = test system: MDA-N
MOLT-4 leukemia = test system: MOLT-4 leukemia
NCI-H226 lung = test system: NCI-H226 lung
NCI-H23 lung = test system: NCI-H23 lung
NCI-H460 lung = test system: NCI-H460 lung
NCI-H522 lung = test system: NCI-H522 lung
NCI/ADR-RES ovarian = test system: NCI/ADR-RES ovarian
OVCAR-3 ovarian = test system: OVCAR-3 ovarian
OVCAR-8 ovarian = test system: OVCAR-8 ovarian
PC-3 prostate = test system: PC-3 prostate
RPMI-8226 leukemia = test system: RPMI-8226 leukemia
RXF 393 renal = test system: RXF 393 renal
SF-268 CNS = test system: SF-268 CNS
SF-295 CNS = test system: SF-295 CNS
SF-539 CNS = test system: SF-539 CNS
SK-MEL-2 melanoma = test system: SK-MEL-2 melanoma
SK-MEL-28 melanoma = test system: SK-MEL-28 melanoma
SK-MEL-5 melanoma = test system: SK-MEL-5 melanoma
SK-OV-3 ovarian = test system: SK-OV-3 ovarian
SN12C renal = test system: SN12C renal
SNB-19 CNS = test system: SNB-19 CNS
SR leukemia = test system: SR leukemia
SW-620 colon = test system: SW-620 colon
T-47D breast = test system: T-47D breast
TK-10 renal = test system: TK-10 renal
U251 CNS = test system: U251 CNS
UACC-257 melanoma = test system: UACC-257 melanoma
UACC-62 melanoma = test system: UACC-62 melanoma
UO-31 renal = test system: UO-31 renal
OVCAR-4 ovarian = test system: OVCAR-4 ovarian
OVCAR-5 ovarian = test system: OVCAR-5 ovarian
SNB-75 CNS = test system: SNB-75 CNS

Structure (SMILES): O/N=C/C1c2ccccc2-c2ccccc21
- TGI (786-0 renal): 21.9 µM
- TGI (A498 renal): 32.9 µM
- TGI (A549 NSCLC): 51.5 µM
- TGI (ACHN renal): 32.2 µM
- TGI (BT-549 breast): 33.1 µM
- TGI (CAKI-1 renal): 33.2 µM
- TGI (CCRF-CEM leukemia): 50.4 µM
- TGI (COLO 205 colon): 30.7 µM
- TGI (DU-145 prostate): 45.9 µM
- TGI (EKVX NSCLC): 28.2 µM
- TGI (HCC-2998 colon): 31.9 µM
- TGI (HCT-116 colon): 32.8 µM
- TGI (HCT-15 colon): 40.2 µM
- TGI (HL-60(TB) leukemia): 93.7 µM
- TGI (HOP-62 NSCLC): 34.2 µM
- TGI (HOP-92 NSCLC): 28 µM
- TGI (HS 578T breast): 47.6 µM
- TGI (HT29 colon): 28.6 µM
- TGI (K-562 leukemia): 67.3 µM
- TGI (KM12 colon): 37.4 µM
- TGI (LOX IMVI melanoma): 63.3 µM
- TGI (M14 melanoma): 32.7 µM
- TGI (MALME-3M melanoma): 31.9 µM
- TGI (MCF7 breast): 33.7 µM
- TGI (MDA-MB-231 breast): 29 µM
- TGI (MDA-MB-435): 34.3 µM
- TGI (MDA-N): 31.9 µM
- TGI (MOLT-4 leukemia): 52.6 µM
- TGI (NCI-H226 lung): 33.6 µM
- TGI (NCI-H23 lung): 37.6 µM
- TGI (NCI-H460 lung): 36 µM
- TGI (NCI-H522 lung): 33.4 µM
- TGI (NCI/ADR-RES ovarian): 33.8 µM
- TGI (OVCAR-3 ovarian): 34.1 µM
- TGI (OVCAR-8 ovarian): 41.5 µM
- TGI (PC-3 prostate): 36.9 µM
- TGI (RPMI-8226 leukemia): 52.8 µM
- TGI (RXF 393 renal): 41.5 µM
- TGI (SF-268 CNS): 37.6 µM
- TGI (SF-295 CNS): 53.4 µM
- TGI (SF-539 CNS): 31 µM
- TGI (SK-MEL-2 melanoma): 36.1 µM
- TGI (SK-MEL-28 melanoma): 29.2 µM
- TGI (SK-MEL-5 melanoma): 25.4 µM
- TGI (SK-OV-3 ovarian): 36.2 µM
- TGI (SN12C renal): 31.9 µM
- TGI (SNB-19 CNS): 38.6 µM
- TGI (SR leukemia): 51.7 µM
- TGI (SW-620 colon): 40.7 µM
- TGI (T-47D breast): 56.3 µM
- TGI (TK-10 renal): 34.9 µM
- TGI (U251 CNS): 44 µM
- TGI (UACC-257 melanoma): 34 µM
- TGI (UACC-62 melanoma): 30.2 µM
- TGI (UO-31 renal): 32.4 µM

Structure (SMILES): COC(=O)c1ccc(C=Nc2ccc(S(N)(=O)=O)cc2)cc1
- TGI (786-0 renal): > 100 µM
- TGI (A498 renal): > 100 µM
- TGI (A549 NSCLC): > 100 µM
- TGI (ACHN renal): > 100 µM
- TGI (BT-549 breast): > 100 µM
- TGI (CAKI-1 renal): > 100 µM
- TGI (CCRF-CEM leukemia): 83 µM
- TGI (COLO 205 colon): > 100 µM
- TGI (DU-145 prostate): > 100 µM
- TGI (EKVX NSCLC): > 100 µM
- TGI (HCC-2998 colon): > 100 µM
- TGI (HCT-116 colon): > 100 µM
- TGI (HCT-15 colon): > 100 µM
- TGI (HL-60(TB) leukemia): > 100 µM
- TGI (HOP-62 NSCLC): > 100 µM
- TGI (HOP-92 NSCLC): > 100 µM
- TGI (HS 578T breast): > 100 µM
- TGI (HT29 colon): > 100 µM
- TGI (KM12 colon): > 100 µM
- TGI (LOX IMVI melanoma): > 100 µM
- TGI (M14 melanoma): > 100 µM
- TGI (MALME-3M melanoma): > 100 µM
- TGI (MCF7 breast): > 100 µM
- TGI (MDA-MB-231 breast): > 100 µM
- TGI (MDA-MB-435): > 100 µM
- TGI (MDA-N): > 100 µM
- TGI (MOLT-4 leukemia): > 100 µM
- TGI (NCI-H226 lung): > 100 µM
- TGI (NCI-H460 lung): > 100 µM
- TGI (NCI/ADR-RES ovarian): > 100 µM
- TGI (OVCAR-3 ovarian): > 100 µM
- TGI (OVCAR-4 ovarian): > 100 µM
- TGI (OVCAR-5 ovarian): > 100 µM
- TGI (OVCAR-8 ovarian): > 100 µM
- TGI (PC-3 prostate): > 100 µM
- TGI (RPMI-8226 leukemia): 86.2 µM
- TGI (RXF 393 renal): > 100 µM
- TGI (SF-268 CNS): > 100 µM
- TGI (SF-295 CNS): > 100 µM
- TGI (SF-539 CNS): > 100 µM
- TGI (SK-MEL-2 melanoma): > 100 µM
- TGI (SK-MEL-28 melanoma): > 100 µM
- TGI (SK-MEL-5 melanoma): > 100 µM
- TGI (SK-OV-3 ovarian): > 100 µM
- TGI (SN12C renal): > 100 µM
- TGI (SNB-19 CNS): > 100 µM
- TGI (SNB-75 CNS): > 100 µM
- TGI (SR leukemia): > 100 µM
- TGI (T-47D breast): > 100 µM
- TGI (TK-10 renal): > 100 µM
- TGI (U251 CNS): > 100 µM
- TGI (UACC-257 melanoma): > 100 µM
- TGI (UACC-62 melanoma): > 100 µM
- TGI (UO-31 renal): > 100 µM

— PubChem BioAssay (NCI)
